The conditions of data set [1]: cited from earlier work.
Data set [2] is described as follows: Trial 1: plasma pharmacokinetics in healthy subjects. It counts as in vivo, human.
A short description of data set [3]: Earlier clinical data on TLV and DM-4103. It counts as in vivo, human. The following applies: from elimination half-life.
For a further data set, the target named is T1, OATP1B1 (Homo sapiens, UniProt Q9Y6L6).
T1 sequence (Q9Y6L6 1-691): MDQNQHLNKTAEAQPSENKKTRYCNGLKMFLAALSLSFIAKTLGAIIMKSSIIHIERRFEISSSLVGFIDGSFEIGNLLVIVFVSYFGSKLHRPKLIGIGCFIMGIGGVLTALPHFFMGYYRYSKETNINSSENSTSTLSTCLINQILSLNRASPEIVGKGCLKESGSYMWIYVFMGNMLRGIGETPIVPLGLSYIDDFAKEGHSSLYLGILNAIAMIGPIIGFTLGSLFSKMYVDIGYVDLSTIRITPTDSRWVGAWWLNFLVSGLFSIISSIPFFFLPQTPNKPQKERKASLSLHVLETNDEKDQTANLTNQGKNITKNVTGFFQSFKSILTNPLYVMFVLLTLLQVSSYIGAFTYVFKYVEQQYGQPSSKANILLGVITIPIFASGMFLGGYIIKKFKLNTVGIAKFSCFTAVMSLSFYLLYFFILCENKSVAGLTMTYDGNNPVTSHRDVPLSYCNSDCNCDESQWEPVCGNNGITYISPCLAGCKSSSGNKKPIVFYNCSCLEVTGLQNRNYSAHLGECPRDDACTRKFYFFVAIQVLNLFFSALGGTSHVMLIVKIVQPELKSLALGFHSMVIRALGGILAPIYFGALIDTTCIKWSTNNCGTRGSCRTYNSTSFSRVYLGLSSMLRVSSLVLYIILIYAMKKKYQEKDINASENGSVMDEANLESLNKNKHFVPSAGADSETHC
It counts as in vivo.

The nature of data set [4]: Trial 2: plasma pharmacokinetics in healthy subjects. It counts as in vivo, human. Conditions: 48 h postdose after 7 days 300 mg TLV q.d.
A further data set concerns the target T2, OAT3 (Homo sapiens, UniProt Q8TCC7).
T2 sequence (Q8TCC7 1-542): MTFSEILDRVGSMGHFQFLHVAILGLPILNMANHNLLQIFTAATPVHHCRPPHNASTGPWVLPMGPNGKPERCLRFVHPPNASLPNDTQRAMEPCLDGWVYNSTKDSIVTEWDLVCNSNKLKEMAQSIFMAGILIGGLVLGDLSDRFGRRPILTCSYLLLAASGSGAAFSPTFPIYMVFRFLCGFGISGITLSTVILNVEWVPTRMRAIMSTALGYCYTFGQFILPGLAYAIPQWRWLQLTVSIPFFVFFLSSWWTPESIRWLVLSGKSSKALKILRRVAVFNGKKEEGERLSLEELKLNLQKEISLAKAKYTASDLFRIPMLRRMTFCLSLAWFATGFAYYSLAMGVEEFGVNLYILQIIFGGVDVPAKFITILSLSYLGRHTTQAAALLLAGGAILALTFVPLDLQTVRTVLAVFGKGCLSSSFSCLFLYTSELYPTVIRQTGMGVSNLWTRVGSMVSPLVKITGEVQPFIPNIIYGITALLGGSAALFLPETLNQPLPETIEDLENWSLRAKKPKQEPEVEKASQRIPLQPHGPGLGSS
Briefly: Trial 2: clinical DDI, furosemide in presence of DM-4103 vs furosemide alone. It counts as in vivo. Conditions: at clinically relevant concentrations.

A short description of the next data set: Plasma protein binding. The class given is in vitro ADME.
A short description of data set [5]: Trial 2: treatment-emergent adverse events. It counts as in vivo, human.
For data set [6], the target named is T3, BCRP (Homo sapiens, UniProt Q9UNQ0).
T3 sequence (Q9UNQ0 1-655): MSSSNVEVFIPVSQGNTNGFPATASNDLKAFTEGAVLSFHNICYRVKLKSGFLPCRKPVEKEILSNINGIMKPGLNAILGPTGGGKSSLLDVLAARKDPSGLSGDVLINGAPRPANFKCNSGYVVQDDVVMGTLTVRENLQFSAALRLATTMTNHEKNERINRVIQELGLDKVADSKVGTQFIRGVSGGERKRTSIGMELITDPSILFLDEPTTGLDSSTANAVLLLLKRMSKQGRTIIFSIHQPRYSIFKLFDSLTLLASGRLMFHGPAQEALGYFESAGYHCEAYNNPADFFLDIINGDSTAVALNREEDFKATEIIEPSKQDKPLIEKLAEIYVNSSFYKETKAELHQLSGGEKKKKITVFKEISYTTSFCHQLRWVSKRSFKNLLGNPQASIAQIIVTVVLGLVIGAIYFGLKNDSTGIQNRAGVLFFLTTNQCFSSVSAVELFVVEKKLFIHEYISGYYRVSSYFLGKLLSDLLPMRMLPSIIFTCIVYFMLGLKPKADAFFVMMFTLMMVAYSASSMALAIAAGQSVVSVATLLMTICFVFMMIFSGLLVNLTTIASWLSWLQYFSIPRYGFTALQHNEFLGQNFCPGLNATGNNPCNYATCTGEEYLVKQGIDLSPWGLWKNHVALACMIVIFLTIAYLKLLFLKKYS
Kind of data set: Trial 1: clinical DDI, rosuvastatin with TLV vs rosuvastatin alone. The class given is in vivo.

The test system of data set [7] is sodium‐dependent taurocholate co‐transporting polypeptide (NTCP). Conditions: cited from earlier work.
Data set [8] is described as follows: Trial 1: treatment-emergent adverse events. It counts as in vivo, human.
For data set [9], the system named is sandwich‐cultured human hepatocytes. Conditions: cited from earlier work.
For data set [10] the following is noted: predicted; cited from earlier work.
Data set [11] addresses T3, BCRP. Kind of data set: Prazosin transport in MDCKII BCRP expressing cells. Conditions: 90-mg TLV dose (200 µmol) assumed completely soluble in 250 ml.
For data set [12] the following is noted: cited from earlier work; for Solubility: pH independent.
Setting [13] is: rosuvastatin + 90 mg tolvaptan vs rosuvastatin alone, n = 14.
[14] abbreviates: trial 2, period 2 (TLV alone, 300 mg q.d.).
Where [15] appears, read: trial 1, period 3 (TLV alone, 300 mg q.d.).

Each structure is given as a SMILES string. Values joined by “and” are separate entries in the source; they are usually repeats but may differ in a detail not shown here. Identical values can stand only once. Like-named read-outs stand apart in the source and are kept apart here.

For the compound `Cc1ccccc1C(=O)Nc1ccc(C(=O)Nc2ccc(Cl)cc2C(=O)CCC(=O)O)c(C)c1` [DM‐4103], the “Mean steady-state plasma concentration” value in [1] (90 + 30 mg TLV regimen in subjects with ADPKD, ref data on file) was ~ 7500 ng/ml and ~15.7 µM. Also, in data set [1], the Elimination half-life is ~ 180 h. Moreover, in [1] (first 2 h following a 90 mg TLV dose, ref data on file), the Plasma concentrations result is listed as “less than 100 ng/ml”. The “Plasma concentration, mean (SD)” value is given as 7240 (1880) ng/ml in data set [2] (trial 1, 48 h postdose after 7 days 300 mg TLV q.d.) and 6430 (2030) ng/ml in data set [4]. Moreover, the “Time to steady-state concentrations after start of TLV dosing” value in data set [3] is on record as ~ 8 weeks. On OATP1B1 (at clinically relevant concentrations), the “Clinical inhibition of OATP1B1” value is reported as “not an inhibitor”. The “Clinical inhibition of OAT3” value on OAT3 is reported as “not an inhibitor”. In addition, the Plasma protein binding result in the data set “Plasma protein binding” is reported as “greater than 99.8%”.
On to `NS(=O)(=O)c1cc(C(=O)O)c(NCc2ccco2)cc1Cl` [Furosemide, furosemide], for which the “TEAE incidence: polyuria” value in data set [5] (trial 2, period 1 (furosemide alone)) came out at 64.3%. For the same compound, the “TEAE incidence: headache” value in data set [5] (trial 2, period 3 (furosemide in presence of DM-4103)) is reported as 21.4%.
Usually AUC(0-inf) stands for total exposure, with the tail of the curve extrapolated. A lower AUC(0-inf) goes with less exposure. In general, CL/F refers to the apparent clearance, not corrected for the fraction that reaches the circulation. What is called half-life is the time in which the quantity being followed falls by half. As to `CC(C)c1nc(N(C)S(C)(=O)=O)nc(-c2ccc(F)cc2)c1/C=C/[C@@H](O)C[C@@H](O)CC(=O)O` [ROS, rosuvastatin], in [2] (5 mg ROS alone, median (minimum-maximum)), the Tmax was 3.50 (2.00–6.00) h. The AUC(0-inf) in [2] (human, plasma, oral, 5 mg, AUC∞, 5 mg ROS alone, minimum-maximum, n = 7) lay within 20.3 to 36 ng·h/mL. In addition, the apparent clearance (CL/F) in [2] (human, plasma, oral, 5 mg, CL/F, 5 mg ROS alone, minimum-maximum, n = 7) was in the range of 28.5 to 68.2 mL/min/kg. In addition, in data set [2] (human, plasma, oral, 5 mg, t1/2,z, 5 mg ROS alone, minimum-maximum, n = 7), the half-life was 2.4 to 4.3 h. Also, at OATP1B1 (rosuvastatin in presence of DM-4103 vs rosuvastatin alone, n = 5), the “Geometric mean ratio (90% CI), AUC∞” value is 0.998^b 0.876–1.138. Moreover, the “Geometric mean ratio (90% CI), AUC∞” value at BCRP [6] (rosuvastatin + 90 mg tolvaptan vs rosuvastatin alone, n = 6) is given as 1.281^a 1.148–1.429. At BCRP [6] (setting [13]), the “Geometric mean ratio (90% CI), AUCt” value is listed as 1.69 and the “Geometric mean ratio (90% CI), Cmax” value is given as 1.54. For the same compound, the “Share of rosuvastatin uptake accounted for by NTCP alone” value in [7] (human hepatocyte studies) is ~ 35%. Also, in data set [8] (trial 1, period 1 (rosuvastatin)), the “TEAE incidence: nausea” value is recorded as 12.5%. Moreover, the “TEAE incidence: headache” value in [8] (trial 1, period 3 (rosuvastatin in presence of DM-4103)) came out at 14.3%.
For the compound `Cc1ccccc1C(=O)Nc1ccc(C(=O)N2CCCC(O)c3cc(Cl)ccc32)c(C)c1` (stereo not shown) [TLV, Tolvaptan], in data set [9], the “Accumulation in sandwich-cultured human hepatocytes” value is listed as “at least 10 fold”. For the same compound, the Safety and tolerability entry in data set [1] (300 mg TLV for 5 days, healthy subjects) is “safe and well‐tolerated”. Moreover, in data set [1], the half-life result is “about 3.5 h”. Also, in data set [5] (setting [14]), the “TEAE incidence: constipation” value is 14.3%, the “TEAE incidence: dizziness” value came out at 14.3%, the “TEAE incidence: dry mouth” value came to 21.4% and the “TEAE incidence: headache” value was determined as 14.3%. In data set [5] (setting [14]), the “TEAE incidence: insomnia” value was determined as 14.3%, the “TEAE incidence: polyuria” value stood at 100% and the “TEAE incidence: thirst” value was 92.9%. Moreover, the “Liver:blood ratio” value in [10] is reported as 38.76. Also, the “Predicted concentration of dose in 250 ml (Igut)” value at BCRP [11] is recorded as 800 µM. At BCRP [6] (90 mg TLV with 5 mg rosuvastatin calcium), the “Clinical inhibition of BCRP” value is reported as “No clinically relevant inhibition”. The “Increase of in vitro solubility by spray-dried formulation” value in data set [12] (TLV tablets, spray-dried technique) is given as “up to sevenfold”. For the same compound, the Solubility in data set [12] is on record as ~ 0.01 g/250 ml. Moreover, the Solubility entry in data set [12] (in Discussion) was “about 0.01 mg/250 ml and ~ 0.09 µM”. The NTCP inhibition entry in data set [7] (IC50 value higher than Cmax) is on record as “inhibitor of NTCP”. In data set [8] (setting [15]), the “TEAE incidence: constipation” value came out at 14.3%, the “TEAE incidence: dry mouth” value was found to be 14.3%, the “TEAE incidence: nausea” value is given as 21.4% and the “TEAE incidence: pollakiuria” value was 71.4%.

These data come from publication PMC8301576 (Clinical and Translational Science, 2021).
